Laboratory results as given in US8008346B2, “Chemotherapeutic agents for inhibition of protein translation” (The Royal University for the Advancement of Learning/McGill …, priority 2006, dated 2011).

Tested on: 80S complex formation
Assay: Ribosome binding (80S complex formation) of 32P-labeled CAT mRNA in rabbit reticulocyte lysate
Type: biochemical
Conditions: CAT mRNA/CHX + 50 μM hippuristanol; CHX alone 22% binding
Method: FIG. 6. Hippuristanol inhibits translation initiation. A. Hippuristanol inhibits 80S complex formation. ^32P-labeled CAT mRNA was incubated in rabbit reticulocyte lysate with cycloheximide (CHX) in the presence or absence of 50 μM hippuristanol. Complexes were resolved on glycerol gradients. Total counts recovered from each gradient and the percent mRNA bound in 80S complexes were: CAT mRNA/CHX [43,498 cpm, 22% binding] and CAT mRNA/CHX+Hipp. [45,279 cpm, 5.7% binding]. B. Hippuristanol inhibits crosslinking of eIF4Ac and eIF4B to capped mRNA. Initiation factors were chemically crosslinked to ^32P cap-labeled mRNA in the absence (lane 2) or presence of ATP (lanes 1, 3-6), 0.6 mM m^7GDP (lane 3), 0.6 mM GDP (lane 4), or 50 μM hippuristanol (lane 6). Following nuclease digestion, samples were resolved by SDS-PAGE and the gel subjected to autoradiography.
Ribosome Binding and mRNA Crosslinking. Ribosome binding assays were performed by incubating ^32P-labelled CAT mRNA in rabbit reticulocyte lysate or wheat germ extracts in the presence of: 600 μM cycloheximide (CHX), 1 mM GMP-PNP, and/or 50 μM hippuristanol or vehicle for 10 min (33). […] Fractions of 500 μl were collected and radioactivity was determined by scintillation counting. […]

SMILES: C[C@H]1C[C@@]2(O[C@H]3C[C@H]4[C@@H]5CC[C@H]6C[C@H](O)CC[C@]6(C)[C@H]5[C@@H](O)C[C@]4(C)[C@H]3[C@@]2(C)O)OC1(C)C [Hippuristanol, hippuristanol]
- percent mRNA bound in 80S complexes: 5.7%
